Reference: patent US9567325B2, “Carboxamide compounds and their use as calpain inhibitors” (AbbVie Deutschland GmbH & Co. KG, priority 2009, dated 2017)

Key:
Format in all cases: biochemical
[1] = molecular target: T1, calpain-1 isolated from human erythrocytes (Homo sapiens, UniProt P07384); test: Calpain I enzyme inhibition in vitro, kinetic fluorescence assay; conditions: apparent Ki calculated from IC50 by Cheng-Prussoff; 100 μM Suc-Leu-Tyr-AMC, pH 7.3, room temperature
T1 construct: 20 nM calpain-1-isolated from human erythrocytes (Calbiochem #208713); purchased Calbiochem 208713; host or cells: human erythrocytes (natural source)
T1 sequence (P07384 1-714): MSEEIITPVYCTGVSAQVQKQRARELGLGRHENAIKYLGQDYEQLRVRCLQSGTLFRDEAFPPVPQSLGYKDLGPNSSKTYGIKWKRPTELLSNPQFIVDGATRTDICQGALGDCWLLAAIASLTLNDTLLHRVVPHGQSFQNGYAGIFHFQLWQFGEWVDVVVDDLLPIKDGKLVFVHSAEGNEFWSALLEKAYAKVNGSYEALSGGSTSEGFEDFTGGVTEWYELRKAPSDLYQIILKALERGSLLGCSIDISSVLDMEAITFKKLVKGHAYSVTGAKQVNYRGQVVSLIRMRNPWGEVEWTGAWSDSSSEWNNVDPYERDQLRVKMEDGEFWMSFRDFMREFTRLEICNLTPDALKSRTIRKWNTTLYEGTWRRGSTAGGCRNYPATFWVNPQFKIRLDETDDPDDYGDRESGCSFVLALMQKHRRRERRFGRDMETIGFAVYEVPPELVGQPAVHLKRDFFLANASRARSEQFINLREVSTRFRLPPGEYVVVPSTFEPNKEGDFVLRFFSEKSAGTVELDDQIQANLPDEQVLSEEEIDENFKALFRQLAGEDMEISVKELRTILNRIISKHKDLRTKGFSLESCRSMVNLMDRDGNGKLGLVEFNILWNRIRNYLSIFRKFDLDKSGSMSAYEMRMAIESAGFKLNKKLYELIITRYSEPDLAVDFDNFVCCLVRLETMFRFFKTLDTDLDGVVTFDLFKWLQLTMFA
T1 sequence (P04632 1-268 partner): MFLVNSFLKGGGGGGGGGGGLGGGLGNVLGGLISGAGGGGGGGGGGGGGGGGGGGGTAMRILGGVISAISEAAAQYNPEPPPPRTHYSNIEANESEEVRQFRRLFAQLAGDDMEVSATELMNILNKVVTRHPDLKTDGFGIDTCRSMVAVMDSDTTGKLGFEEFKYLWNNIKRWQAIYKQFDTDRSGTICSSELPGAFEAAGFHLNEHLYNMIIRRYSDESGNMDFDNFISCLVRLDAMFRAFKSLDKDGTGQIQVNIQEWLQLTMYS
Experimental: (§1) The following solutions and buffers were employed: • HBS (for 40 ml): 800 μl 1M HEPES; 2.16 ml 100 mM KCl; 4.8 ml 1M NaCl; 3.59 ml 5% glucose; 60 μl 1M MgSO4; 400 μl 100 mM Na pyruvate, 28.19 ml water; pH 7.2-7.5. • lysis buffer (for 20 ml): 400 μl 1M Tris pH 8.2; 2.74 ml 1M NaCl; 520 μl 0.5M EDTA; 2 ml 10% triton X-100; 0.8 ml (=1:25) CompletePlus (1 tablet/2 ml H2O); 200 μl 100 mM Pefabloc; 13.34 ml water, pH 8.2. • TBST (10×) (for 11): 100 mM Tris (12.1 g); 1.5M NaCl (87 g); 1% Tween 20 (10 g), adjusted to pH 8. I Enzyme Inhibition In Vitro: • Testing for blockade of the corresponding enzymic activities was carried out by means of kinetic fluorescence assays (excitation 390 nm, emission 460 nm). • Apparent Ki values were calculated from the experimentally determined IC50 values by the Cheng-Prussoff relation assuming a reversible competitive enzyme inhibition. The Km values of the substrates used under the assay conditions indicated above were: 90 μM (Z-Phe-Arg-AMC, cathepsin B), 10 μM (Z-Gly-Pro-Arg-AMC, cathepsin K), 2 μM (Z-Phe-Arg-AMC, cathepsin L), and 30 μM (Z-Val-Val-Arg-AMC, cathepsin S). • The indicated Ki values are averages of the inhibition constants calculated on the basis of 2 to 4 independent dose-effect plots. • The following assays were used: • 1. Calpain I: • 20 nM calpain-1-isolated from human erythrocytes (Calbiochem #208713), 100 μM Suc-Leu-Tyr-AMC (Bachem #1-1355) as substrate in buffer with 62 mM imidazole, 0.3 mM CaCl2, 0.10% CHAPS, 0.05% BSA, 1 mM DTT at pH 7.3 and room temperature. • 2. Cathepsin B: • 0.25 nM cathepsin B—isolated from human liver (Calbiochem #219362), 100 μM Z-Phe-Arg-AMC (Bachem #1-1160) as substrate 50 mM MES, 2 mM EDTA, 0.05% Brij 35, 2.5 mM L-cysteine, pH 6.0, room temperature. • 3. Cathepsin K: • 3 nM cathepsin K-activated from recombinant human procathepsin K from E. coli (Calbiochem #342001), 10 μM Z-Gly-Pro-Arg-AMC (Biomol #P-142) as substrate in 50 mM MES, 2 mM EDTA, 0.05% Brij 35, 2.5 mM L-cysteine, pH 6.0, room temperature. • 4. Cathepsin L: • 1 nM cathepsin L—isolated from human liver (Calbiochem #219402), 2 μM Z-Phe-Arg-AMC (Bachem #1-1160) as substrate in 50 mM MES, 2 mM EDTA, 0.05% Brij 35, 2.5 mM L-cysteine, pH 6.0, room temperature. • 5. Cathepsin S: • 0.5 nM recombinant human cathepsin S from E. coli (Calbiochem #219343), 20 μM Z-Val-Val-Arg-AMC (Bachem #I-1540) as substrate in 50 mM MES, 2 mM EDTA, 0.05% Brij 35, 2.5 mM L-cysteine, pH 6.0, room temperature. • The results of the in vitro determination are indicated in Table 1. The following abbreviations are used in Table 1: • In the “Calpain activity” column, +++ stands for a calpain Ki (Ki(calpain)) of ≦40 nM, and ++ means: 40 nM<Ki(Calpain)≦100 nM and + means 100 nM<Ki(Calpain)≦300 nM. • The “Sel. cat. B” column indicates the Ki(cathepsin B)/Ki(calpain) ratio. In this connection, ++ means a Ki(cathepsin B)/Ki(calpain) ratio of ≧30 and + means 10≦Ki(cathepsin B)/Ki(calpain)<30. • The “Sel. cat. K” column indicates the Ki(cathepsin K)/Ki(calpain) ratio. In this connection, ++ means a Ki(cathepsin K)/Ki(calpain) ratio of ≧30 and + means 10≦Ki(cathepsin K)/Ki(calpain)<30. • The “Sel. cat. L” column indicates the Ki(cathepsin L)/Ki(calpain) ratio. In this connection, ++ means a Ki(cathepsin L)/Ki(calpain) ratio of ≧50 and + means 30≦Ki(cathepsin L)/Ki(calpain)<50. • The “Sel. cat. S” column indicates the Ki(cathepsin S)/Ki(calpain) ratio. In this connection, ++ means a Ki(cathepsin S)/Ki(calpain) ratio of ≧100 and + means 50≦Ki(cathepsin S)/Ki(calpain)<100.

[2] = molecular target: T2, cathepsin B isolated from human liver (Homo sapiens, UniProt P07858); test: Cathepsin B enzyme inhibition in vitro, kinetic fluorescence assay (selectivity vs calpain); conditions: ratio of Ki values; Z-Phe-Arg-AMC substrate, pH 6.0
T2 construct: 0.25 nM cathepsin B—isolated from human liver (Calbiochem #219362); purchased Calbiochem 219362; host or cells: human liver (natural source)
Experimental: as §1

[3] = molecular target: T3, cathepsin K activated from recombinant human procathepsin K (Homo sapiens, UniProt P43235); test: Cathepsin K enzyme inhibition in vitro, kinetic fluorescence assay (selectivity vs calpain); conditions: ratio of Ki values; Z-Gly-Pro-Arg-AMC substrate, pH 6.0
T3 construct: purchased Calbiochem 342001; host or cells: E. coli
T3 sequence (P43235 115-329): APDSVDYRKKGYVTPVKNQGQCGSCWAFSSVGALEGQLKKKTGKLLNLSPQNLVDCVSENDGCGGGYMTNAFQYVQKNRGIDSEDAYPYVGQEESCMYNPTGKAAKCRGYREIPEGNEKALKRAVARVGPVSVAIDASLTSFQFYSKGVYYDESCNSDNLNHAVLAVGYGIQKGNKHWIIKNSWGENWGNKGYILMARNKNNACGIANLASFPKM
Experimental: as §1

[4] = molecular target: T4, cathepsin L isolated from human liver (Homo sapiens, UniProt P07711); test: Cathepsin L enzyme inhibition in vitro, kinetic fluorescence assay (selectivity vs calpain); conditions: ratio of Ki values; Z-Phe-Arg-AMC substrate, pH 6.0
T4 construct: 1 nM cathepsin L—isolated from human liver (Calbiochem #219402); purchased Calbiochem 219402; host or cells: human liver (natural source)
Experimental: as §1

[5] = molecular target: T5, recombinant human cathepsin S (Homo sapiens, UniProt P25774); test: Cathepsin S enzyme inhibition in vitro, kinetic fluorescence assay (selectivity vs calpain); conditions: ratio of Ki values; Z-Val-Val-Arg-AMC substrate, pH 6.0
T5 construct: purchased Calbiochem 219343; host or cells: E. coli
Experimental: as §1

T4 sequence (P07711 114-333): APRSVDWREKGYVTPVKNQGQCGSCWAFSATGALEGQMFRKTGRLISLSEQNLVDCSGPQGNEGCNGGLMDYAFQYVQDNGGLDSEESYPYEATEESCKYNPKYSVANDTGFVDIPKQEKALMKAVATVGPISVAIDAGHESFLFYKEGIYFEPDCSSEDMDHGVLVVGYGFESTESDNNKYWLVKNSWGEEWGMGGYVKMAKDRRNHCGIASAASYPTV
T5 sequence (P25774 115-331): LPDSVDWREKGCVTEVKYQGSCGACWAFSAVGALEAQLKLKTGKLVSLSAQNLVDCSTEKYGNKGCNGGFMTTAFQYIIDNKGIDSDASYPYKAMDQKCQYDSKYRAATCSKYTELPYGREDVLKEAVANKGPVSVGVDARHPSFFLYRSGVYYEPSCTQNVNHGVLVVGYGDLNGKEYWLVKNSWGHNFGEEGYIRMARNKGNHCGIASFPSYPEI

## NC(=O)C(=O)C(Cc1ccccc1)NC(=O)c1cccnc1-c1nc(-c2ccc(F)cc2)cs1 (stereo not drawn) [Example 4, N-(4-Amino-3,4-dioxo-1-phenylbutan-2-yl)-2-[4-(4-fluorophenyl)-1,3-thiazol-2-yl]pyridine-3-carboxamide]
[1]
  Ki: 40 to 100 nM
[2]
  Sel cat. B (Ki(cathepsin B)/Ki(calpain) ratio): + (+ means 10≦Ki(cathepsin B)/Ki(calpain)<30)
[3]
  Sel cat. K (Ki(cathepsin K)/Ki(calpain) ratio): + (+ means 10≦Ki(cathepsin K)/Ki(calpain)<30)
[4]
  Sel cat. L (Ki(cathepsin L)/Ki(calpain) ratio): ++ (++ means a Ki(cathepsin L)/Ki(calpain) ratio of ≧50)
[5]
  Sel cat. S (Ki(cathepsin S)/Ki(calpain) ratio): ++ (++ means a Ki(cathepsin S)/Ki(calpain) ratio of ≧100)

## NC(=O)C(=O)C(Cc1ccccc1)NC(=O)c1cccnc1-c1ncc(-c2ccccc2)[nH]1 (stereo not drawn) [Example 2, N-(4-Amino-3,4-dioxo-1-phenylbutan-2-yl)-2-(5-phenyl-1H-imidazol-2-yl)pyridine-3-carboxamide]
[1]
  Ki: 100 to 300 nM
[3]
  Sel cat. K (Ki(cathepsin K)/Ki(calpain) ratio): + (+ means 10≦Ki(cathepsin K)/Ki(calpain)<30)

## NC(=O)C(=O)C(Cc1ccccc1)NC(=O)c1cccnc1-c1nc2ccccc2s1 (stereo not drawn) [Example 3, N-(4-Amino-3,4-dioxo-1-phenylbutan-2-yl)-2-(1,3-benzothiazol-2-yl)pyridine-3-carboxamide]
[1]
  Ki: 40 to 100 nM
[2]
  Sel cat. B (Ki(cathepsin B)/Ki(calpain) ratio): + (+ means 10≦Ki(cathepsin B)/Ki(calpain)<30)
[3]
  Sel cat. K (Ki(cathepsin K)/Ki(calpain) ratio): + (+ means 10≦Ki(cathepsin K)/Ki(calpain)<30)
[4]
  Sel cat. L (Ki(cathepsin L)/Ki(calpain) ratio): ++ (++ means a Ki(cathepsin L)/Ki(calpain) ratio of ≧50)
[5]
  Sel cat. S (Ki(cathepsin S)/Ki(calpain) ratio): ++ (++ means a Ki(cathepsin S)/Ki(calpain) ratio of ≧100)

## NC(=O)C(=O)C(Cc1ccccc1)NC(=O)c1cccnc1-c1csc(-c2ccccc2Cl)n1 (stereo not drawn) [Example 8, N-(4-Amino-3,4-dioxo-1-phenylbutan-2-yl)-2-[2-(2-chlorophenyl)-1,3-thiazol-4-yl]pyridine-3-carboxamide]
[1]
  Ki: ≤ 40 nM
[2]
  Sel cat. B (Ki(cathepsin B)/Ki(calpain) ratio): ++ (++ means a Ki(cathepsin B)/Ki(calpain) ratio of ≧30)
[3]
  Sel cat. K (Ki(cathepsin K)/Ki(calpain) ratio): + (+ means 10≦Ki(cathepsin K)/Ki(calpain)<30)
[4]
  Sel cat. L (Ki(cathepsin L)/Ki(calpain) ratio): ++ (++ means a Ki(cathepsin L)/Ki(calpain) ratio of ≧50)
[5]
  Sel cat. S (Ki(cathepsin S)/Ki(calpain) ratio): ++ (++ means a Ki(cathepsin S)/Ki(calpain) ratio of ≧100)

## NC(=O)C(=O)C(Cc1ccc(F)cc1)NC(=O)c1cccnc1-c1csc(-c2ccccc2)n1 (stereo not drawn) [Example 15, N-(4-Amino-1-(4-fluorophenyl)-3,4-dioxobutan-2-yl)-2-(2-phenylthiazol-4-yl)nicotinamide]
[1]
  Ki: 40 to 100 nM
[2]
  Sel cat. B (Ki(cathepsin B)/Ki(calpain) ratio): ++ (++ means a Ki(cathepsin B)/Ki(calpain) ratio of ≧30)
[3]
  Sel cat. K (Ki(cathepsin K)/Ki(calpain) ratio): + (+ means 10≦Ki(cathepsin K)/Ki(calpain)<30)
[4]
  Sel cat. L (Ki(cathepsin L)/Ki(calpain) ratio): ++ (++ means a Ki(cathepsin L)/Ki(calpain) ratio of ≧50)
[5]
  Sel cat. S (Ki(cathepsin S)/Ki(calpain) ratio): ++ (++ means a Ki(cathepsin S)/Ki(calpain) ratio of ≧100)

## NC(=O)C(=O)C(Cc1ccccc1)NC(=O)c1cccnc1-c1nc2ccccc2o1 (stereo not drawn) [Example 16, N-(4-amino-3,4-dioxo-1-phenylbutan-2-yl)-2-(benzo[d]oxazol-2-yl)nicotinamide]
[1]
  Ki: 100 to 300 nM
[2]
  Sel cat. B (Ki(cathepsin B)/Ki(calpain) ratio): + (+ means 10≦Ki(cathepsin B)/Ki(calpain)<30)
[3]
  Sel cat. K (Ki(cathepsin K)/Ki(calpain) ratio): + (+ means 10≦Ki(cathepsin K)/Ki(calpain)<30)
[5]
  Sel cat. S (Ki(cathepsin S)/Ki(calpain) ratio): ++ (++ means a Ki(cathepsin S)/Ki(calpain) ratio of ≧100)

## NC(=O)C(=O)C(Cc1ccccc1)NC(=O)c1cccnc1-c1csc(-c2ccc(F)cc2)n1 (stereo not drawn) [Example 5, N-(4-Amino-3,4-dioxo-1-phenylbutan-2-yl)-2-[2-(4-fluorophenyl)-1,3-thiazol-4-yl]pyridine-3-carboxamide]
[1]
  Ki: 40 to 100 nM
[2]
  Sel cat. B (Ki(cathepsin B)/Ki(calpain) ratio): + (+ means 10≦Ki(cathepsin B)/Ki(calpain)<30)
[4]
  Sel cat. L (Ki(cathepsin L)/Ki(calpain) ratio): + (+ means 30≦Ki(cathepsin L)/Ki(calpain)<50)
[5]
  Sel cat. S (Ki(cathepsin S)/Ki(calpain) ratio): ++ (++ means a Ki(cathepsin S)/Ki(calpain) ratio of ≧100)
